Results taken from patent US10399953B2, “Preparation of furan fatty acids from 5-(chloromethyl)furfural” (THE REGENTS OF THE UNIVERSITY OF CALIFORNIA, priority 2015, dated 2019).

Assay: 2,2-diphenyl-1-picrylhydrazyl (DPPH) radical scavenging assay
Assay type: biochemical
Conditions: for DPPH Scavenging %: 30 minutes, room temperature, dark, absorption at 517 nm; for antioxidant activity (quenching of the DPPH radical), in words: 25, 50 and 100 μg/mL
Source text: The antioxidant activity of the FFAs has been evaluated by a range of methods, including spin trapping of N-oxide radicals (Okada et al. (1996) Biol. Pharm. Bull. 19: 1607), inhibition of radically initiated oxygen uptake in linoleic acid (Okada et al. (1990) J. Am. Oil Chem. Soc. 67: 858) and unsaturated fatty acid moieties of phosphatidyl choline liposomes (Ishii et al. (1989) Chem. Pharm. Bull. 37: 1396), and acting as a substrate for plant lipoxygenase (Batna and Spiteller (1994) Lipids 29: 397). We have evaluated the free radical scavenging abilities of synthetic FFAs 5a (n=1, m=9, R^1=R^2=H) and 5b (n=1, m=9, R^1=R^2=Me) against butylated hydroxytoluene (BHT) by 2,2-diphenyl-1-picrylhydrazyl (DPPH) assay.
The method of Moon and Shibamoto (Moon and Shibamoto (2009) J. Agric. Food Chem. 57: 1655) was used to evaluate antioxidant activity. DPPH (0.0177 g) was dissolved in methanol (MeOH) (100 mL) and 500 μL of this solution was added into test tubes containing 11-(5-propylfuran-2-yl)undecanoic acid and 11-(3,4-dimethyl-5-propylfuran-2-yl)undecanoic acid at concentrations of 25, 50, and 100 μg/mL after dilution of stock solutions with MeOH to 1.0 mL total volume. A 1.0 mg/mL BHT stock solution (100 μL) was diluted with 400 μL methanol and the DPPH solution (500 μL). A control solution was prepared by adding methanol (500 μL) into the DPPH solution (500 μL), and a methanol blank was used for the baseline correction. The tubes were allowed to stand at room temperature in the dark for 30 minutes and the change in the absorption at 517 nm was measured by UV-visible spectrometry. Radical scavenging ability was expressed as DPPH scavenging % and calculated using this formula: DPPH scavenging %=(control abs.−sample abs./control abs.)×100.

| Compound | DPPH Scavenging % (25 μg/mL) | DPPH Scavenging % (50 μg/mL) | DPPH Scavenging % (100 μg/mL) | antioxidant activity (quenching of the DPPH radical), in words | inhibition (DPPH assay) (100 μg/mL) | antioxidant power relative to BHT on a mass basis (of BHT, mass basis, 100 μg/mL) | antioxidant power relative to BHT based on molar concentrations (of BHT, recalculated on molar concentrations) |
| --- | --- | --- | --- | --- | --- | --- | --- |
| CCCc1ccc(CCCCCCCCCCC(=O)O)o1 [Compound 5a, 11-(5-Propylfuran-2-yl)undecanoic Acid] | 4% | −2% | −3% | virtually no antioxidant activity |  |  |  |
| Cc1cc(C(C)(C)C)c(O)c(C(C)(C)C)c1 [BHT, butylated hydroxytoluene, reference compound] |  |  | 93% |  | 93% |  |  |
| CCCc1oc(CCCCCCCCCCC(=O)O)c(C)c1C [Compound 5b, 11-(3,4-Dimethyl-5-propylfuran-2-yl)undecanoic Acid] | 7% | 27% | 53% | concentration-dependent quenching of the DPPH radical | 53% | 57% | 83% |
